Data from patent US4762848A, “1,3-thiazoles and their use as immunomodulators” (Hoechst Aktiengesellschaft, priority 1985, dated 1988).

How the values were obtained:
[1] = test system: mouse peritoneal macrophages; assay: Release of lysosomal hydrolase enzymes from peritoneal macrophages of treated mice; format: in vivo, NMRI mice; conditions: for N-Ac-Glu % release: N-acetyl-β-D-glucosaminidase; for β-Gal % release: β-galactosidase; for β-Glu % release: β-glucuronidase
Experimental: This entailed investigation of the effect of the test substance obtained as in exemplary embodiment 7 on the stimulation of peritoneal macrophages in 6-8 week old NMRI mice. Female mice received the test substance in parenteral or oral doses of 25 mg/kg, 50 mg/kg, 100 mg/kg and 200 mg/kg. Buffered saline solution was administered to a control group. The mice were sacrificed three days after the injections, and the peritoneal macrophages of the animals were examined for their state of activation. The secretion of the lysosomal enzymes (β-galactosidase, β-glucuronidase and N-acetyl-β-D-glucosaminidase) was determined as one measure of macrophage activation. […] The level of oxidative metabolism in macrophages is taken as another measure of their state of activation. This activity is measured with the assistance of a biolumate by determination of the chemiluminescence.
For this purpose, either 3×10^6 macrophages were cultured with 1 ml of TC 199 culture medium in Petri dishes of diameter 30 mm or 10^6 macrophages were cultured with 100 μl of medium in round-bottomed polyethylene tubes (for determination of the chemiluminescence), with 5% CO2 and at 37° C.
After incubation for one hour, the cultures were washed to remove floating cells. The chemiluminescence (tube culture) was then determined directly, whereas the Petri dishes were incubated for a further 24 hours at 37° C. and then the enzyme and pinocytosis activities in the cultures were determined.
It can be seen from Table 3 that macrophages from control mice release only small amounts of lysosomal enzymes (β-glucuronidase, β-galactosidase and N-acetyl-β-D-glucosaminidase) into the culture supernatant. […] It is evident that the test substance has a stimulant action on macrophage activity and contributes to an increase in enzyme release.

Candida albicans = assay: Therapeutic treatment of chronic Candida albicans infection; format: in vivo, female Balb/c mice infected with Candida albicans; conditions: for Urine infected with C. albicans d19 / Urine infected with C. albicans d24 / Kidneys infected with C. albicans / Necrotic kidneys: days 3-15; for Urine infected with C. albicans d19: day 19; for Urine infected with C. albicans d24: day 24; for Kidneys infected with C. albicans / Necrotic kidneys: day 26
Experimental: Increase in the Resistance of Balb/c Mice to Infection with Candida albicans
(a) Therapeutic treatment
For the therapeutic treatment of chronic Candida albicans infection, female Balb/c mice (16/group) were infected intravenously with Candida albicans (2.5×10^5 cfu/mouse) (day 0). After the infection had taken place, the animals were treated intraperitoneally on 13 consecutive days (days 3-15) with the test substance obtained as in Example 7; the concentrations were 0.5, 2.0, 5.0, 10.0, 30.0 and 60.0 mg/kg. The control animals received administrations of physiological saline solution. Urine was collected from the animals on days 19 and 24, and the organism count was determined. On day 26, the animals were sacrificed, and the organism count and the necroses in the kidneys were determined.

In the case of `Cc1nc(SCCCC(=O)O)sc1CC(=O)O` [Example 7, [2-(3-Carboxy-1-propylthio)-4-methyl-1,3-thiazol-5-yl]acetic acid], the N-Ac-Glu % release ([1]; 25 mg/kg, 1 × i.p.) is reported as 17.2%, the N-Ac-Glu % release ([1]; 25 mg/kg, 1 × p.o.) is reported as 15.4% and the N-Ac-Glu % release ([1]; 50 mg/kg, 1 × i.p.) is reported as 26.0%. For the same compound, the N-Ac-Glu % release ([1]; 50 mg/kg, 1 × p.o.) was 22.8%, the N-Ac-Glu % release ([1]; 100 mg/kg, 1 × i.p.) was 40.8% and the N-Ac-Glu % release ([1]; 100 mg/kg, 1 × p.o.) was 37.3%. For the same compound, the N-Ac-Glu % release ([1]; 200 mg/kg, 1 × i.p.) was 51.5%, the N-Ac-Glu % release ([1]; 200 mg/kg, 1 × p.o.) was 45.2% and the β-Gal % release ([1]; 25 mg/kg, 1 × i.p.) was 24.1%. It also gave a β-Gal % release ([1]; 25 mg/kg, 1 × p.o.) of 20.4%, a β-Gal % release ([1]; 50 mg/kg, 1 × i.p.) of 33.5% and a β-Gal % release ([1]; 50 mg/kg, 1 × p.o.) of 26.9%. For the same compound, the β-Gal % release ([1]; 100 mg/kg, 1 × i.p.) was 52.9%, the β-Gal % release ([1]; 100 mg/kg, 1 × p.o.) was 43.6% and the β-Gal % release ([1]; 200 mg/kg, 1 × i.p.) was 65.4%. It also gave a β-Gal % release ([1]; 200 mg/kg, 1 × p.o.) of 54.8%, a β-Glu % release ([1]; 25 mg/kg, 1 × i.p.) of 20.0% and a β-Glu % release ([1]; 25 mg/kg, 1 × p.o.) of 17.5%. The β-Glu % release ([1]; 50 mg/kg, 1 × i.p.) was 30.9%, the β-Glu % release ([1]; 50 mg/kg, 1 × p.o.) was 25.1% and the β-Glu % release ([1]; 100 mg/kg, 1 × i.p.) was 42.8%. For the same compound, the β-Glu % release ([1]; 100 mg/kg, 1 × p.o.) was 38.2%, the β-Glu % release ([1]; 200 mg/kg, 1 × i.p.) was 58.2% and the β-Glu % release ([1]; 200 mg/kg, 1 × p.o.) was 49.8%. The “Urine infected with C. albicans d19” value (Candida albicans; 0.5 mg/kg i.p.) was 0%, the “Urine infected with C. albicans d24” value (Candida albicans; 0.5 mg/kg i.p.) was 6% and the “Kidneys infected with C. albicans” value (Candida albicans; 0.5 mg/kg i.p.) was 27%. The Necrotic kidneys (Candida albicans; 0.5 mg/kg i.p.) was 27%, the “Urine infected with C. albicans d19” value (Candida albicans; 2.0 mg/kg i.p.) was 6% and the “Urine infected with C. albicans d24” value (Candida albicans; 2.0 mg/kg i.p.) was 6%. The “Kidneys infected with C. albicans” value (Candida albicans; 2.0 mg/kg i.p.) was 13%, the Necrotic kidneys (Candida albicans; 2.0 mg/kg i.p.) was 7% and the “Urine infected with C. albicans d19” value (Candida albicans; 5.0 mg/kg i.p.) was 0%. For the same compound, the “Urine infected with C. albicans d24” value (Candida albicans; 5.0 mg/kg i.p.) was 7%, the “Kidneys infected with C. albicans” value (Candida albicans; 5.0 mg/kg i.p.) was 27% and the Necrotic kidneys (Candida albicans; 5.0 mg/kg i.p.) was 47%. For the same compound, the “Urine infected with C. albicans d19” value (Candida albicans; 10.0 mg/kg i.p.) was 7%, the “Urine infected with C. albicans d24” value (Candida albicans; 10.0 mg/kg i.p.) was 21% and the “Kidneys infected with C. albicans” value (Candida albicans; 10.0 mg/kg i.p.) was 29%. The Necrotic kidneys (Candida albicans; 10.0 mg/kg i.p.) was 43%, the “Urine infected with C. albicans d19” value (Candida albicans; 60.0 mg/kg i.p.) was 13% and the “Urine infected with C. albicans d24” value (Candida albicans; 60.0 mg/kg i.p.) was 13%. For the same compound, the “Kidneys infected with C. albicans” value (Candida albicans; 60.0 mg/kg i.p.) was 38%, the Necrotic kidneys (Candida albicans; 60.0 mg/kg i.p.) was 31% and the “dose for optimal action in chronic Candida albicans infection” value (Candida albicans; therapeutic i.p. treatment, mice) was 0.5 to 5.0 mg/kg.
